Measurements reported in ChEMBL document CHEMBL1201862, “PubChem BioAssay data set” (2004).
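These data come from cells grown in 96-well plates and exposed to compound for 48 hours at five concentrations. GI50 marks 50% less growth.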 Active and inactive are the calls of the source. Cut-off read from the data, not from the text of the source: active = GI50 up to about 1.1 µM and inactive = higher.

Experiments:
Assay in all cases: NCI tumour cell line growth inhibition, 48 h
KM12 = system: KM12
NCI-H23 = system: NCI-H23
OVCAR-8 = system: OVCAR-8
MDA-MB-231 = system: MDA-MB-231
LOX IMVI = system: LOX IMVI
SR = system: SR
Malme-3M = system: Malme-3M
IGROV-1 = system: IGROV-1
Hs-578T = system: Hs-578T
T47D = system: T47D
SK-MEL-2 = system: SK-MEL-2
HT-29 = system: HT-29
UO-31 = system: UO-31
MDA-MB-435 = system: MDA-MB-435
HOP-62 = system: HOP-62
SN12C = system: SN12C
SF-295 = system: SF-295
ACHN = system: ACHN
UACC-257 = system: UACC-257
HCT-116 = system: HCT-116
K562 = system: K562
DU-145 = system: DU-145
M14 = system: M14
UACC-62 = system: UACC-62
HL-60 = system: HL-60
SW-620 = system: SW-620
SK-MEL-5 = system: SK-MEL-5
RPMI-8226 = system: RPMI-8226
U-251 = system: U-251
SNB-19 = system: SNB-19
BT-549 = system: BT-549
COLO 205 = system: COLO 205
SF-268 = system: SF-268
OVCAR-5 = system: OVCAR-5
PC-3 = system: PC-3
NCI-H226 = system: NCI-H226
MOLT-4 = system: MOLT-4
SNB-75 = system: SNB-75
OVCAR-3 = system: OVCAR-3
EKVX = system: EKVX
HCT-15 = system: HCT-15
A498 = system: A498
786-0 = system: 786-0
SK-OV-3 = system: SK-OV-3
NCI-H460 = system: NCI-H460
CCRF-CEM = system: CCRF-CEM
SF-539 = system: SF-539
RXF 393 = system: RXF 393
MCF7 = system: MCF7
NCI/ADR-RES = system: NCI/ADR-RES
MDA-N = system: MDA-N
CAKI-1 = system: CAKI-1
TK-10 = system: TK-10
NCI-H522 = system: NCI-H522
SK-MEL-28 = system: SK-MEL-28
HCC 2998 = system: HCC 2998
OVCAR-4 = system: OVCAR-4
A549 = system: A549

Q: Which GI50 (KM12) does the source give for `CCOC(=O)c1cc(C2CCN(CC(C)CC)C2=S)c(C(=O)/C=C(/C)N)[nH]1` (stereo not given) here?
A: The GI50 was > 50 µM (inactive).

Q: What about the GI50 (NCI-H23) of the same compound?
A: The GI50 was > 50 µM (inactive).

Q: What about the GI50 (OVCAR-8) of the same compound?
A: Its GI50 is > 50 µM (inactive).

Q: And the GI50 (MDA-MB-231)?
A: Its GI50 is > 50 µM (inactive).

Q: And the GI50 (LOX IMVI)?
A: The GI50 was > 50 µM (inactive).

Q: And the GI50 (SR)?
A: The GI50 was > 50 µM (inactive).

Q: And the GI50 (Malme-3M)?
A: The GI50 was > 50 µM (inactive).

Q: And the GI50 (IGROV-1)?
A: The GI50 was > 50 µM (inactive).

Q: And the GI50 (Hs-578T)?
A: Its GI50 is > 50 µM (inactive).

Q: And the GI50 (T47D)?
A: The GI50 was > 50 µM (inactive).

Q: What about the GI50 (SK-MEL-2) of the same compound?
A: Its GI50 is > 50 µM (inactive).

Q: And the GI50 (HT-29)?
A: The GI50 was > 50 µM (inactive).

Q: And the GI50 (UO-31)?
A: Its GI50 is > 50 µM (inactive).

Q: And the GI50 (MDA-MB-435)?
A: The GI50 was > 50 µM (inactive).

Q: And the GI50 (HOP-62)?
A: Its GI50 is > 50 µM (inactive).

Q: What about the GI50 (SN12C) of the same compound?
A: Its GI50 is > 50 µM (inactive).

Q: What about the GI50 (SF-295) of the same compound?
A: Its GI50 is > 50 µM (inactive).

Q: And the GI50 (ACHN)?
A: Its GI50 is > 50 µM (inactive).

Q: What about the GI50 (UACC-257) of the same compound?
A: The GI50 was > 50 µM (inactive).

Q: And the GI50 (HCT-116)?
A: The GI50 was > 50 µM (inactive).

Q: What about the GI50 (K562) of the same compound?
A: Its GI50 is > 50 µM (inactive).

Q: And the GI50 (DU-145)?
A: Its GI50 is > 50 µM (inactive).

Q: What about the GI50 (M14) of the same compound?
A: Its GI50 is > 50 µM (inactive).

Q: And the GI50 (UACC-62)?
A: Its GI50 is > 50 µM (inactive).

Q: What about the GI50 (HL-60) of the same compound?
A: The GI50 was > 50 µM (inactive).

Q: And the GI50 (SW-620)?
A: The GI50 was > 50 µM (inactive).

Q: What about the GI50 (SK-MEL-5) of the same compound?
A: The GI50 was > 50 µM (inactive).

Q: And the GI50 (RPMI-8226)?
A: The GI50 was > 50 µM (inactive).

Q: What about the GI50 (U-251) of the same compound?
A: Its GI50 is > 50 µM (inactive).

Q: What about the GI50 (SNB-19) of the same compound?
A: The GI50 was > 50 µM (inactive).

Q: What about the GI50 (BT-549) of the same compound?
A: Its GI50 is > 50 µM (inactive).

Q: And the GI50 (COLO 205)?
A: The GI50 was > 50 µM (inactive).

Q: And the GI50 (SF-268)?
A: The GI50 was > 50 µM (inactive).

Q: What about the GI50 (OVCAR-5) of the same compound?
A: Its GI50 is > 50 µM (inactive).

Q: What about the GI50 (PC-3) of the same compound?
A: Its GI50 is > 50 µM (inactive).

Q: And the GI50 (NCI-H226)?
A: The GI50 was > 50 µM (inactive).

Q: What about the GI50 (MOLT-4) of the same compound?
A: The GI50 was > 50 µM (inactive).

Q: And the GI50 (SNB-75)?
A: Its GI50 is > 50 µM (inactive).

Q: What about the GI50 (OVCAR-3) of the same compound?
A: Its GI50 is > 50 µM (inactive).

Q: What about the GI50 (EKVX) of the same compound?
A: The GI50 was > 50 µM (inactive).

Q: And the GI50 (HCT-15)?
A: Its GI50 is over 50000 nM.

Q: What about the GI50 (A498) of the same compound?
A: The GI50 was > 50 µM (inactive).

Q: And the GI50 (786-0)?
A: Its GI50 is > 50 µM (inactive).

Q: And the GI50 (SK-OV-3)?
A: Its GI50 is > 50 µM (inactive).

Q: What about the GI50 (NCI-H460) of the same compound?
A: Its GI50 is > 50 µM (inactive).

Q: And the GI50 (CCRF-CEM)?
A: Its GI50 is > 50 µM (inactive).

Q: And the GI50 (SF-539)?
A: Its GI50 is > 50 µM (inactive).

Q: What about the GI50 (RXF 393) of the same compound?
A: Its GI50 is > 50 µM (inactive).

Q: And the GI50 (MCF7)?
A: The GI50 was > 50 µM (inactive).

Q: And the GI50 (NCI/ADR-RES)?
A: The GI50 was > 50 µM (inactive).

Q: And the GI50 (MDA-N)?
A: Its GI50 is > 50 µM (inactive).

Q: And the GI50 (CAKI-1)?
A: The GI50 was > 50 µM (inactive).

Q: What about the GI50 (TK-10) of the same compound?
A: The GI50 was > 50 µM (inactive).

Q: Which results are given for `Cc1ccc(O)c(C(c2cccc(C(c3cc(C)ccc3O)c3cc(C)ccc3O)c2)c2cc(C)ccc2O)c1`?
A: GI50 (KM12): 1.65 µM (inactive); GI50 (NCI-H23): 1.75 µM (inactive); GI50 (OVCAR-8): 2 µM (inactive); GI50 (MDA-MB-231): 1.25 µM (inactive); GI50 (LOX IMVI): 1.54 µM (inactive); GI50 (SR): 2.73 µM (inactive); GI50 (Malme-3M): 1.87 µM (inactive); GI50 (IGROV-1): 1.56 µM (inactive); GI50 (Hs-578T): 1.56 µM (inactive); GI50 (T47D): 1.98 µM (inactive); GI50 (SK-MEL-2): 2.1 µM (inactive); GI50 (NCI-H522): 1.64 µM (inactive); GI50 (SK-MEL-28): 1.83 µM (inactive); GI50 (HT-29): 1.66 µM (inactive); GI50 (UO-31): 1.91 µM (inactive); GI50 (MDA-MB-435): 1.75 µM (inactive); GI50 (HOP-62): 2.06 µM (inactive); GI50 (SN12C): 1.83 µM (inactive); GI50 (SF-295): 2.24 µM (inactive); GI50 (ACHN): 1.73 µM (inactive); GI50 (HCC 2998): 1.86 µM (inactive); GI50 (UACC-257): 1.94 µM (inactive); GI50 (HCT-116): 1.89 µM (inactive); GI50 (K562): 1.81 µM (inactive); GI50 (DU-145): 1.44 µM (inactive); GI50 (M14): 1.88 µM (inactive); GI50 (UACC-62): 1.99 µM (inactive); GI50 (HL-60): 2.01 µM (inactive); GI50 (SW-620): 1.66 µM (inactive); GI50 (SK-MEL-5): 2.44 µM (inactive); GI50 (RPMI-8226): 1.55 µM (inactive); GI50 (U-251): 1.77 µM (inactive); GI50 (SNB-19): 1.89 µM (inactive); GI50 (BT-549): 2.43 µM (inactive); GI50 (COLO 205): 1.21 µM (inactive); GI50 (SF-268): 1.6 µM (inactive); GI50 (OVCAR-4): 2.22 µM (inactive); GI50 (OVCAR-5): 1.69 µM (inactive); GI50 (PC-3): 1.77 µM (inactive); GI50 (NCI-H226): 1.77 µM (inactive); GI50 (MOLT-4): 2.6 µM (inactive); GI50 (SNB-75): 1.93 µM (inactive); GI50 (OVCAR-3): 2.21 µM (inactive); GI50 (EKVX): 1.82 µM (inactive); GI50 (HCT-15): 1870 nM; GI50 (A498): 1.53 µM (inactive); GI50 (786-0): 1.69 µM (inactive); GI50 (SK-OV-3): 1.87 µM (inactive); GI50 (A549): 1.97 µM (inactive); GI50 (CCRF-CEM): 2.38 µM (inactive); GI50 (SF-539): 1.75 µM (inactive); GI50 (RXF 393): 1.69 µM (inactive); GI50 (MCF7): 1.58 µM (inactive); GI50 (NCI/ADR-RES): 3.01 µM (inactive); GI50 (MDA-N): 1.79 µM (inactive); GI50 (CAKI-1): 1.52 µM (inactive); GI50 (TK-10): 1.82 µM (inactive)
